According to the NIST ThermoML archive (doi:10.1016/j.fluid.2007.11.002):
Values joined by “and” are separate entries in the source; they are usually repeats but may differ in a detail not shown here. Equal values may be shown once. ± gives the expanded uncertainty stated by the source.

What was measured:
[1] = refractive index (Na D-line) (dimensionless); conditions: 298.15 K; 101.33 kPa; Liquid; Standard Abbe refractometry
[2] = Liquid, Ebulliometric method (Recirculating still)

refractive index [1] | vapor or sublimation pressure ([2]; 323.15 K) | vapor or sublimation pressure ([2]; 333.15 K) | vapor or sublimation pressure ([2]; 335.85 K) | vapor or sublimation pressure ([2]; 343.15 K) | vapor or sublimation pressure ([2]; 353.15 K) | vapor or sublimation pressure ([2]; 354.65 K) | vapor or sublimation pressure ([2]; 363.15 K) | vapor or sublimation pressure ([2]; 366.95 K) | vapor or sublimation pressure ([2]; 374.45 K) | Normal boiling temperature [2] | vapor or sublimation pressure ([2]; 325.05 K) | vapor or sublimation pressure ([2]; 340.05 K) | vapor or sublimation pressure ([2]; 349.75 K) | vapor or sublimation pressure ([2]; 355.55 K) | Compound
1.3823 ± 0.0012 | 24.4 ± 0.48 kPa | 39.06 ± 0.62 kPa | – | 60.93 ± 0.89 kPa | 92.26 ± 1.2 kPa | – | – | – | – | 82.40 ± 0.22 °C | 26.66 kPa | 53.33 kPa | 79.99 kPa | 101.33 kPa | CC(C)(C)O [2-methylpropan-2-ol]
1.3955 ± 0.0012 | – | – | – | 29.86 ± 0.59 kPa | – | – | 70.25 ± 0.9 kPa | – | – | 99.50 ± 0.22 °C | – | – | – | – | CCC(C)O (stereo not given) [butan-2-ol]
1.3939 ± 0.0012 | – | 12.5 ± 0.34 kPa | – | 20.35 ± 0.4 kPa | 32.25 ± 0.55 kPa and 32.19 ± 0.5 kPa | – | – | – | – | 107.90 ± 0.22 °C | – | – | – | – | CC(C)CO [2-methyl-1-propanol]

Compound | refractive index [1] | vapor or sublimation pressure ([2]; 323.15 K) | vapor or sublimation pressure ([2]; 333.15 K) | vapor or sublimation pressure ([2]; 335.85 K) | vapor or sublimation pressure ([2]; 343.15 K) | vapor or sublimation pressure ([2]; 353.15 K) | vapor or sublimation pressure ([2]; 354.65 K) | vapor or sublimation pressure ([2]; 363.15 K) | vapor or sublimation pressure ([2]; 366.95 K) | vapor or sublimation pressure ([2]; 374.45 K) | Normal boiling temperature [2] | vapor or sublimation pressure ([2]; 325.05 K) | vapor or sublimation pressure ([2]; 340.05 K) | vapor or sublimation pressure ([2]; 349.75 K) | vapor or sublimation pressure ([2]; 355.55 K)
C1COCCO1 [1,4-dioxane] | 1.4205 ± 0.0012 | 15.93 ± 0.36 kPa | 23.94 ± 0.44 kPa and 24 ± 0.42 kPa | 26.66 ± 0.44 kPa | 35.19 ± 0.59 kPa and 35.11 ± 0.54 kPa and 35.2 ± 0.54 kPa | 50.78 ± 0.8 kPa and 50.41 ± 0.68 kPa and 50.53 ± 0.68 kPa | 53.33 ± 0.8 kPa | 70.91 ± 0.88 kPa | 79.99 ± 1 kPa | 101.33 ± 1.1 kPa | 101.30 ± 0.22 °C | – | – | – | –
